In patent publication US20210007356A1, “IMIDE DERIVATIVE AND FUNGICIDE CONTAINING SAID DERIVATIVE AS ACTIVE INGREDIENT” (HOKKO CHEMICAL INDUSTRY CO., LTD., priority 2018, published 2021):
Like-named read-outs stand apart in the source and are kept apart here.

What was measured:
Format in all cases: in vivo
[1] = system: rice blast fungus (Pyricularia grisea); details: 5 g of granule on nursery box, paddy rice; inoculated after 3 weeks; 7 days after inoculation
[2] = system: barley powdery mildew fungus (Erysiphe graminis); assay: Test Example 2: control effect against barley powdery mildew by foliage application; details: wettable powder diluted to 100 ppm, 10 mL per pot foliage spray on barley; inoculated day after; 7 days after inoculation
[3] = system: rice blast fungus (Pyricularia grisea); details: flowable 1,000 ppm, 1 mL dripped in paddy water, inoculated after 1 week, 7 days after inoculation
[4] = system: rice blast fungus (Pyricularia grisea); details: flowable 5,000 ppm, 50 mL irrigation of nursery box, paddy rice; inoculated after 3 weeks; 7 days after inoculation

SMILES	evaluation value of control effect (from control value, number of lesions) [1]	evaluation value of control effect (from control value, lesion area percentage) [2]	evaluation value of control effect (from control value, number of lesions) [3]	evaluation value of control effect (from control value, number of lesions) [4]
CC(C)CC(C)c1sccc1N(C(=O)c1cn(C)nc1C(F)(F)F)C(=O)c1snc(Cl)c1Cl (stereo not shown) [5-1, 3,4-Dichloro-N-{2-(1,3-dimethylbutyl)-3-thienyl}-N-{1-methyl-3-(trifluoromethyl)pyrazole-4-carbonyl}isothiazole-5-carboxamide]	5	5	5	5
CCC(C)Oc1cccc(N(C(=O)c2sc(C)nc2C(F)F)C(=O)c2snc(Cl)c2Cl)c1C (stereo not shown) [7-125]	5	4	5	5
CCc1nc(C(F)F)c(C(=O)N(C(=O)c2snc(Cl)c2Cl)c2ccccc2C(C)CC(C)C)s1 (stereo not shown) [7-132]	5	4	5	5
Cc1nc(C(F)F)c(C(=O)N(C(=O)c2cccc3nnsc23)c2ccccc2C(C)CC(C)C)s1 (stereo not shown) [7-200]	5	4	5	5
Cc1nc(C(F)F)c(C(=O)N(C(=O)c2snc(Cl)c2Cl)c2ccsc2C(C)CC(C)C)s1 (stereo not shown) [11-8]	5	5	5	5
CC(C)CC(C)c1ccccc1N(C(=O)c1cccnc1C(F)(F)F)C(=O)c1snc(Cl)c1Cl (stereo not shown) [13-1]	5	5	5	5
CC(C)CC(C)c1ccccc1N(C(=O)c1cccnc1F)C(=O)c1snc(Cl)c1Cl (stereo not shown) [13-51]	5	4	5	5
Cc1ncccc1C(=O)N(C(=O)c1snc(Cl)c1Cl)c1ccccc1C(C)CC(C)C (stereo not shown) [13-52]	5	4	5	5
CC1CC(C)(C)c2cccc(N(C(=O)c3cn(C)nc3C(F)F)C(=O)c3cccc4nnsc34)c21 (stereo not shown) [25-73]	5	5	5	5
CC1CC(C)(C)c2cccc(N(C(=O)c3cn(C)nc3C(F)F)C(=O)c3scnc3C(F)F)c21 (stereo not shown) [25-109]	5	4	5	5
